Assay results as given in patent US20230080054A1 (ILDONG PHARMACEUTICAL CO., LTD., priority 2021, published 2023).

Target: T1, human ANO6 (Homo sapiens, UniProt Q4KMQ2)
T1 construct: expressed in transfected cells
T1 sequence (Q4KMQ2 1-931 isoform Q4KMQ2-2): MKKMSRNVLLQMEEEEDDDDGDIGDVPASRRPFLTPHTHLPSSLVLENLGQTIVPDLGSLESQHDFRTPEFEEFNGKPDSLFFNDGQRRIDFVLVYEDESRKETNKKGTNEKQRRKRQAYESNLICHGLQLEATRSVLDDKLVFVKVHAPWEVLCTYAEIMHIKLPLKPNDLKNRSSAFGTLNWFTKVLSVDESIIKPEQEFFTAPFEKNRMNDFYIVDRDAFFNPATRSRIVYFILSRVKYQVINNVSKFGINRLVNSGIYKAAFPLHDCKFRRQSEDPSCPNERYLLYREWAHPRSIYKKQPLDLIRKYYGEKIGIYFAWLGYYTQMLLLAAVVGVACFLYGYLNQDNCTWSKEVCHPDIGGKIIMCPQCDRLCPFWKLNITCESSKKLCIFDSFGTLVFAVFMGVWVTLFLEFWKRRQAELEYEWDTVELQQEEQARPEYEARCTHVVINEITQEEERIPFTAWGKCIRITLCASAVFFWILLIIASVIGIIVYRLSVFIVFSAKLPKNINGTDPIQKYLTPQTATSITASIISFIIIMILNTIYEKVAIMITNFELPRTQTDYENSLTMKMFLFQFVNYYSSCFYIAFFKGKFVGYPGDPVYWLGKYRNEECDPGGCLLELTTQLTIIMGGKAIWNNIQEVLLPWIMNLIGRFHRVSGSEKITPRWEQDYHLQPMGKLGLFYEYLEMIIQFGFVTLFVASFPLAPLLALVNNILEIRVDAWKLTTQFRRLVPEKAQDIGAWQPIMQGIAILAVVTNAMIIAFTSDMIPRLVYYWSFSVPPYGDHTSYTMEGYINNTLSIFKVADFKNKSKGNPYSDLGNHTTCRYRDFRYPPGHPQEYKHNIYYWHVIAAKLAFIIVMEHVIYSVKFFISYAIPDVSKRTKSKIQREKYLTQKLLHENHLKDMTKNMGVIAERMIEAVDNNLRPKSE
Test: LACT C2 assay (phosphatidylserine scramblase function assay)
Format: cell-based
Conditions: FRT cells expressing human ANO6, 10 μM ionomycin; for inhibition at 0.1 µM: test compound 100 nM, read-out: Inhibition Level 100 nM; for inhibition at 1 µM: test compound 1 μM, read-out: Inhibition Level 1 μM
Description: Phosphatidylserine Scramblase Function Assay
1. Materials and Instruments
Ionomycin (Alomonelab, cat. #I-700), DAPI (Sigma-Aldrich, cat. #D8417), paraformaldehyde (Biosesang, cat. #P2031), Lionheart FX Automated Microscope (BioTek, Winooski), Python3 (Python Software Foundation), and OpenCV (Open Source Computer Vision Library).
Fisher rat thyroid (FRT) cells stably expressing human ANO6 (GenBank accession no. NP_001191732.1, provided by J. H. Nam, Dongguk University College of Medicine, Korea) were grown in DMEM/Ham's F-12 (1:1) medium with 10% FBS, 2 mM L-549 glutamine, 100 units/mL penicillin, and 100 μg/mL streptomycin at 37° C. and 5% CO2.
FRT cells stably expressing human ANO6 were plated in 96 well black-walled microplates at a density of 2×10^4 cells/well. After 24 hours incubation, cells were treated with the test compound (dissolved in DMSO) were treated to each well to become 1% v/v DMSO for 10 minutes, then 10 μM of ionomycin was applied. Finally each well was washed with 200 μL PBS after 10 minutes. After washout, the phosphatidylserine and nuclei were stained with PBS containing 500 nM Lactadherin-C2 (Lact-C2)-GFP, then cells were washed with 200 μL PBS. Cells were fixed with 4% paraformaldehyde for 5 minutes at room temperature. For morphological analysis, some cells were stained with fluorescently labelled DAPI for 15 minutes at room temperature. Quantitative analysis of the fluorescence intensity of Lact-C2-GFP was performed with Python3 and OpenCV. OpenCV was used to remove background and noise pixels, and the sum of all remaining pixel values was used to evaluate the fluorescence intensity of Lact-C2-GFP.
The inhibitory activity (%) of each of the test compounds was obtained by the following steps. In each row of 96 well plate, the inhibitory activity of each of the test compounds was calculated as percentages. The inhibitory activity of a negative control group to which neither compounds nor ionomycin were treated was set to be 100%, and the inhibitory activity of a positive control group to which ionomycin was treated and compounds were not treated was set to be 0%. The assay was performed in triplicate, and the results were averaged.

Row | SMILES | inhibition at 0.1 µM [%] | inhibition at 1 µM [%]
1 | N#CC1(NC(=O)c2cccc(Nc3ccc(-c4cccc(F)c4)nn3)c2)CC1 [Compound 223, N-(1-cyanocyclopropyl)-3-((6-(3-fluorophenyl)pyridazin-3-yl)amino)benzamide] | < 30 | 30 to 60
2 | COc1cc(F)ccc1CNC(=O)c1cccc(Nc2ccc(-c3ccccc3)nn2)c1 [Compound 214, N-(4-fluoro-2-methoxybenzyl)-3-((6-phenylpyridazin-3-yl)amino)benzamide] | < 30 | 30 to 60
3 | O=C(NC1(CO)CC1)c1cccc(Nc2ccc(-c3cccc(F)c3)nn2)c1 [Compound 224, 3-((6-(3-fluorophenyl)pyridazin-3-yl)amino)-N-(1-(hydroxymethyl)cyclopropyl)benzamide] | < 30 | < 30
4 | O=C(NCc1ccc(F)c(C(F)(F)F)c1)c1cccc(Nc2ccc(-c3ccccc3)nn2)c1 [Compound 195, N-(4-fluoro-3-(trifluoromethyl)benzyl)-3-((6-phenylpyridazin-3-yl)amino)benzamide] | < 30 | ≥ 60
5 | O=C(Nc1nnc(-c2ccccc2)[nH]1)c1cccc(Nc2ncc(-c3cccc(F)c3)cn2)c1 [Compound 194, 3-((5-(3-fluorophenyl)pyrimidin-2-yl)amino)-N-(5-phenyl-4H-1,2,4-triazol-3-yl)benzamide] | < 30 | –
6 | O=C(O)c1ccc(CCNC(=O)c2cccc(Nc3ncc(-c4cccc(F)c4)cn3)c2)cc1 [Compound 130, 4-(2-(3-((5-(3-fluorophenyl)pyrimidin-2-yl)amino)benzamido)ethyl)benzoic acid] | < 30 | < 30
7 | Nc1ccccc1CCNC(=O)c1cccc(Nc2ncc(-c3cccc(F)c3)cn2)c1 [Compound 148, N-(2-aminophenethyl)-3-((5-(3-fluorophenyl)pyrimidin-2-yl)amino)benzamide] | < 30 | < 30
8 | CCN1CCN(c2cc(CNC(=O)c3cccc(Nc4ccc(-c5ccccc5)nn4)c3)ccc2F)CC1 [Compound 226, N-(3-(4-ethylpiperazin-1-yl)-4-fluorobenzyl)-3-((6-phenylpyridazin-3-yl)amino)benzamide] | < 30 | < 30
9 | O=C(NCc1ccc(F)c(Br)c1)c1cccc(Nc2ccc(-c3ccccc3)nn2)c1 [Compound 201, N-(3-bromo-4-fluorobenzyl)-3-((6-phenylpyridazin-3-yl)amino)benzamide] | < 30 | 30 to 60
10 | O=C(N[C@@H]1C[C@H]1c1ccc(Cl)c(F)c1)c1cccc(Nc2ccc(-c3ccccc3)nn2)c1 [Compound 221, N-((1R,2S)-2-(4-chloro-3-fluorophenyl)cyclopropyl)-3-((6-phenylpyridazin-3-yl)amino)benzamide] | 30 to 60 | ≥ 60
11 | CN1CCN(c2cc(F)ccc2CNC(=O)c2cccc(Nc3ccc(-c4ccccc4)nn3)c2)CC1 [Compound 222, N-(4-fluoro-2-(4-methylpiperazin-1-yl)benzyl)-3-((6-phenylpyridazin-3-yl)amino)benzamide] | < 30 | 30 to 60
12 | O=C(NCc1c(F)cc(F)cc1F)c1cccc(Nc2ncc(-c3cccc(F)c3)cn2)c1 [Compound 205, 3-((5-(3-fluorophenyl)pyrimidin-2-yl)amino)-N-(2,4,6-trifluorobenzyl)benzamide] | < 30 | 30 to 60
13 | O=C(NCc1ccc(F)c(Cl)c1)c1cccc(Nc2ccc(-c3ccccc3)nn2)c1 [Compound 211, N-(3-chloro-4-fluorobenzyl)-3-((6-phenylpyridazin-3-yl)amino)benzamide] | < 30 | ≥ 60
14 | O=C(N[C@@H]1C[C@H]1c1ccccc1)c1cc(Nc2ncc(-c3ccccc3)cn2)ccn1 [Compound 167, N-((1R,2S)-2-phenylcyclopropyl)-4-((5-phenylpyrimidin-2-yl)amino)picolinamide] | < 30 | –
15 | O=C(N[C@@H]1C[C@H]1c1ccc(Cl)c(F)c1)c1cccc(Nc2ncc(-c3cccc(F)c3)cn2)c1 [Compound 131, N-((1R,2S)-2-(4-chloro-3-fluorophenyl)cyclopropyl)-3-((5-(3-fluorophenyl)pyrimidin-2-yl)amino)benzamide] | < 30 | ≥ 60
16 | O=C(Nc1cccc(F)c1)c1cccc(NC2CCC(c3ccccc3)C2)c1 (centres unmarked) [Compound 187, N-(3-fluorophenyl)-3-((3-phenylcyclopentyl)amino)benzamide] | < 30 | –
17 | O=C(N[C@@H]1C[C@H]1c1ccccc1)c1ccnc(Nc2ccc(-c3ccccc3)cn2)c1 [Compound 149, N-((1R,2S)-2-phenylcyclopropyl)-2-((5-phenylpyridin-2-yl)amino)isonicotinamide] | < 30 | ≥ 60
18 | CC(NC(=O)c1cccc(Nc2ccc(-c3ccccc3)nn2)c1)c1ccc(F)cc1 (centres unmarked) [Compound 233, N-(1-(4-fluorophenyl)ethyl)-3-((6-phenylpyridazin-3-yl)amino)benzamide] | < 30 | < 30

The remaining lines, values ahead:

Row | inhibition at 0.1 µM [%] | inhibition at 1 µM [%] | SMILES
19 | < 30 | 30 to 60 | N#CC1(NC(=O)c2cccc(Nc3ncc(-c4cccc(F)c4)cn3)c2)CC1 [Compound 218, N-(1-cyanocyclopropyl)-3-((5-(3-fluorophenyl)pyrimidin-2-yl)amino)benzamide]
20 | < 30 | < 30 | O=C(NCc1ccc(F)cc1F)c1cccc(Nc2ncc(-c3cccc(F)c3)cn2)c1 [Compound 215, N-(2,4-difluorobenzyl)-3-((5-(3-fluorophenyl)pyrimidin-2-yl)amino)benzamide]
21 | < 30 | ≥ 60 | N#Cc1cccc(NC(=O)c2cccc(Nc3ncc(-c4cccc(F)c4)cn3)c2)c1 [Compound 136, N-(3-cyanophenyl)-3-((5-(3-fluorophenyl)pyrimidin-2-yl)amino)benzamide]
22 | < 30 | 30 to 60 | O=C(NCc1ccc(F)cc1)c1cccc(Nc2ncc(-c3cccc(F)c3)cn2)c1 [Compound A96]
23 | ≥ 60 | – | Cc1cscc1-c1cnc(Nc2cccc(C(=O)Nc3cccc(F)c3)c2)nc1 [Compound 179, N-(3-fluorophenyl)-3-((5-(4-methylthiophen-3-yl)pyrimidin-2-yl)amino)benzamide]
24 | < 30 | ≥ 60 | O=C(Nc1nccs1)c1cccc(Nc2ncc(-c3cccc(F)c3)cn2)c1 [Compound 138, 3-((5-(3-fluorophenyl)pyrimidin-2-yl)amino)-N-(thiazol-2-yl)benzamide]
25 | < 30 | ≥ 60 | Cc1ccc(NC(=O)c2cccc(Nc3ncc(-c4cccc(F)c4)cn3)c2)cc1 [Compound A102]
26 | < 30 | < 30 | Cc1ccccc1CNC(=O)c1cccc(Nc2ncc(-c3cccc(F)c3)cn2)c1 [Compound A99]
27 | < 30 | < 30 | O=C(NC1(CO)CC1)c1cccc(Nc2ncc(-c3cccc(F)c3)cn2)c1 [Compound 219, 3-((5-(3-fluorophenyl)pyrimidin-2-yl)amino)-N-(1-(hydroxymethyl)cyclopropyl)benzamide]
